These results are taken from US10435396B2, “2-substituted indazoles, methods for producing same, pharmaceutical preparations that contain same, and use of same to produce drugs” (Bayer Pharma Aktiengesellschaft, priority 2016, dated 2019).

In test [1] the test system is NF-kB activity in TMD-8-NF-kB-luc cells. Nature of the test: NF-kB reporter assay. As to conditions: 6 h, One-Glo, read-out: IC50 with respect to the inhibition of NF-kB activity in TMD-8-NF-kB-luc cells. It is filed as cell-based, human. On the procedure:
NF-kB Reporter Assay The effect of the inventive compounds of the general formula (I) on the NF-kB signalling pathway was examined in vitro in human DLBCL cells (see Table 4). 10 000 TMD-8-NF-kB-luc reporter cells at 30 μl/cavity in growth medium (RPMI (Biochrom: FG 1215), 20% FCS (Biochrom: S 0615)) were transferred into a 384-cavity plate (Perkin Elmer, white) and incubated at 37° C. overnight. After 24 h, the cells were treated with the test substances and incubated at 37° C. for 6 h. The test substances were added to the cells in a 7-stage, 3-fold dilution series using an HP D300 digital dispenser. As control, the cells were treated with the vehicle (DMSO). After 6 h, the cells were treated with 30 μl/well One-Glo solution (Promega, E6110) and incubated at room temperature for 10 min, and the luminescence was measured using a VICTOR V (Perkin Elmer) in order to determine the NF-kB reporter activity at the end of the treatment. The percentage effect of the NF-kB reporter activity and the IC50 derived therefrom were determined for each test substance with the aid of the values for an NF-kB pathway inhibitor (I-kappa B kinase inhibitor) (−)-7-[2-(cyclopropylmethoxy)-6-hydroxyphenyl]-5-[(3S)-3-piperidinyl]-1,4-dihydro-2H-pyrido[2,3-d][1,3]oxazin-2-one (CAS Number 600734-02-9; see WO 2003076447) (=maximum inhibition) and the DMSO control (=minimum inhibition). The IC50 values were calculated using a 4-parameter fit.

In another test the test system is TMD-8 cells. As to the kind of experiment: Cell proliferation measurement in TMD-8 cells. The test is classed as cell-based, human. As to conditions: Cell Titer Glo, read-out: IC50 with respect to proliferation inhibition in TMD-8 cells. On the procedure: Cell Proliferation Measurement The antiproliferative activity of the inventive compounds of the general formula (I) was examined in vitro in human ABC-DLBCL cells (see Table 3). For this purpose 4000 TMD-8 cells (both from ATCC) at 30 μl/cavity in growth medium (RPMI (Biochrom: FG 1215), 20% FCS (Biochrom: S 0615)) were transferred into a 384-cavity plate (Perkin Elmer, white) and incubated at 37° C. overnight. After 24 h, cells on one plate (0 h plate) were treated with 30 μl/cavity of CTG solution (Promega Cell Titer Glo (catalogue # […] and […])) and incubated at room temperature for 10 min, and luminescence was measured by means of a VICTOR V (Perkin Elmer), in order to determine cell viability on commencement of treatment. The cells on the test plate were treated with the inventive compounds of the general formula (I) and incubated at 37° C. for 72 h. The compounds were added to the cells in a 7-stage, 3-fold dilution series using an HP D300 digital dispenser. As control, the cells were treated with vehicle (DMSO). After 72 h, the cells were treated with 30 μl/cavity of CTG solution (Promega Cell Titer Glo (catalogue # […] and […])) and incubated at room temperature for 10 min, and luminescence was measured by means of a VICTOR V (Perkin Elmer), in order to determine cell viability at the end of treatment. The percentage effect on cell growth and the IC50 derived therefrom were determined for each test substance using the values from the 0 h plate (=maximum inhibition) and the DMSO control (=minimum inhibition). The IC50 values were calculated using a 4-parameter fit.
(In general: Cellular ATP, detected with luciferase, serves as a proxy for viable cell number.)

A further test concerns human PBMCs. Nature of the test: In vitro LPS-induced cytokine production in human PBMCs. The test is classed as cell-based. As to conditions: 0.1 μg/ml LPS, 24 hours. On the procedure: In Vitro LPS (Lipopolysaccharide)-Induced Cytokine Production in Human PBMCs (Peripheral Blood Mononuclear Cells)
The effect of the inventive compounds of the general formula (I) on induced cytokine production in human PBMCs was examined. Cytokine production was induced here by LPS, a TLR4 ligand, which leads to activation of the IRAK4-mediated signal path.
The human PBMCs were obtained from anti-coagulated human whole blood. To this end, 15 ml of Ficoll-Paque (Biochrom, Cat. No. L6115) were initially charged in Leucosep tubes and 20 ml of human blood were added. After centrifugation of the blood at 800 g for 15 min at room temperature, the plasma including the platelets was removed and discarded. The PBMCs were transferred into centrifugation tubes and made up with PBS (phosphate-buffered saline) (Gibco, Cat. No. 14190). The cell suspension was centrifuged at room temperature at 250 g for 10 min and the supernatant was discarded. The PBMCs were resuspended in complete medium (RPMI 1640, without L-glutamine (PAA, Cat. No. E15-039), 10% FCS; 50 U/ml penicillin, 50 μg/ml streptomycin (PAA, Cat. No. P11-010) and 1% L-glutamine (Sigma, Cat. No. G7513)).
The assay was also carried out in complete medium. The PBMCs were sown in 96-well plates at a cell density of 2.5×10^5 cells/well. The compounds according to the invention were subjected to serial dilution in a constant volume of 100% DMSO and used in the assay at 8 different concentrations in the range from 10 μM to 3 nM such that the final DMSO concentration was 0.4% DMSO. Prior to the actual stimulation, the cells were then pre-incubated therewith for 30 min. […] Cell viability was determined using the CellTiter-Glo luminescent assay (Promega, Cat. No. G7571 (G755/G756A)) in accordance with the manufacturer's instructions. The amount of secreted TNF-α in the cell culture supernatant was determined using the Human ProInflammatory 9-Plex Tissue Culture Kit (MSD, Cat. No. K15007B) in accordance with the instructions of the manufacturer. […]

Like-named read-outs stand apart in the source and are kept apart here.

As to `CC(C)(O)c1cc2nn(C3CCNCC3)cc2cc1NC(=O)c1cccc(C(F)(F)F)n1` [Example 46, N-[6-(2-Hydroxypropan-2-yl)-2-(piperidin-4-yl)-2H-indazol-5-yl]-6-(trifluoromethyl)pyridine-2-carboxamide], the IC50 was determined as 13.4 µM in test [1] (Homo sapiens) and 14.1 µM with TMD-8 cells (Homo sapiens, TMD8, 72 h). In the test on human PBMCs, the “activity (secreted TNF-α, LPS-induced cytokine production in human PBMCs)” value was at most 1 µM.
With `COc1cc2nn(C3CCNCC3)cc2cc1NC(=O)c1cccc(C(F)(F)F)n1` [Example 2, N-[6-Methoxy-2-(piperidin-4-yl)-2H-indazol-5-yl]-6-(trifluoromethyl)pyridine-2-carboxamide], the IC50 stood at 9.45 µM in test [1] (Homo sapiens) and 8.61 µM with TMD-8 cells (Homo sapiens, TMD8, 72 h).
For `CC(C)(O)c1cc2nn(C3CCS(=O)(=O)CC3)cc2cc1NC(=O)c1cccc(C(F)(F)F)n1` [Example 44, N-[2-(1,1-Dioxidotetrahydro-2H-thiopyran-4-yl)-6-(2-hydroxypropan-2-yl)-2H-indazol-5-yl]-6-(trifluoromethyl)pyridine-2-carboxamide], the IC50 is 14.6 µM in test [1] (Homo sapiens) and 18.8 µM in the test with TMD-8 cells (Homo sapiens, TMD8, 72 h). For the same molecule, the “activity (secreted TNF-α, LPS-induced cytokine production in human PBMCs)” value in the test with human PBMCs was at most 1 µM.
As for `COc1cc2nn(C3CC[S+]([O-])CC3)cc2cc1NC(=O)c1cccc(C(F)(F)F)n1` (racemic) [Example 12, rac-N-[6-Methoxy-2-(1-oxidotetrahydro-2H-thiopyran-4-yl)-2H-indazol-5-yl]-6-(trifluoromethyl)pyridine-2-carboxamide], the IC50 worked out at 6.81 µM in test [1] (Homo sapiens) and 11.5 µM in the test on TMD-8 cells (Homo sapiens, TMD8, 72 h).
The like results for `COc1cc2nn(C3CCN(C4COC4)CC3)cc2cc1NC(=O)c1cccc(C(F)(F)F)n1` [Example 10, N-{6-Methoxy-2-[1-(oxetan-3-yl)piperidin-4-yl]-2H-indazol-5-yl}-6-(trifluoromethyl)pyridine-2-carboxamide] were, in that order, 28.9 µM and 23.3 µM.
The like results for `COc1cc2nn([C@@H]3C[C@@H]4C[C@H]3CN4C)cc2cc1NC(=O)c1cccc(C(F)(F)F)n1` (relative stereo) [Example 18, rel-N-{6-Methoxy-2-[(1S,4S,5R)-2-methyl-2-azabicyclo[2.2.1]hept-5-yl]-2H-indazol-5-yl}-6-(trifluoromethyl)pyridine-2-carboxamide] were, in that order, 5.52 µM and 3.45 µM.
The like results for `COc1cc2nn(C3CCOCC3)cc2cc1NC(=O)c1cccc(N2CCOCC2)n1` [Example 24, N-[6-Methoxy-2-(tetrahydro-2H-pyran-4-yl)-2H-indazol-5-yl]-6-(morpholin-4-yl)pyridine-2-carboxamide] were, in that order, 22.6 µM and 28.1 µM.
Take `COc1cc2nn(C3CCS(=N)(=O)CC3)cc2cc1NC(=O)c1cccc(C(F)(F)F)n1` (single isomer, unassigned) [Example 20, N-[2-(1-Imino-1-oxidohexahydro-1λ^4-thiopyran-4-yl)-6-methoxy-2H-indazol-5-yl]-6-(trifluoromethyl)pyridine-2-carboxamide]: the IC50 in test [1] is 21.8 µM; in the test on TMD-8 cells (72 h), 16.1 µM.
For `COc1cc2nn(C3CCOCC3)cc2cc1NC(=O)c1cccc(C(C)(C)O)n1` [Example 28, 6-(2-Hydroxypropan-2-yl)-N-[6-methoxy-2-(tetrahydro-2H-pyran-4-yl)-2H-indazol-5-yl]pyridine-2-carboxamide], the IC50 in test [1] (Homo sapiens) was found to be 2.68 µM; in the test with TMD-8 cells (Homo sapiens, TMD8, 72 h), 3.51 µM.
With `COc1cc2nn(C3CCS(=N)(=O)CC3)cc2cc1NC(=O)c1cccc(C(F)(F)F)n1` (single isomer, unassigned) [Example 21, N-[2-(1-Imino-1-oxidohexahydro-1λ^4-thiopyran-4-yl)-6-methoxy-2H-indazol-5-yl]-6-(trifluoromethyl)pyridine-2-carboxamide], the IC50 in test [1] was found to be 5.19 µM; in the test on TMD-8 cells (Homo sapiens, TMD8, 72 h), 14.8 µM.
Turning to `COc1cc2nn(C3CCN(CCO)CC3)cc2cc1NC(=O)c1cccc(C(F)(F)F)n1` [Example 13, N-{2-[1-(2-Hydroxyethyl)piperidin-4-yl]-6-methoxy-2H-indazol-5-yl}-6-(trifluoromethyl)pyridine-2-carboxamide], the IC50 in test [1] (Homo sapiens) was 5.1 µM; in the test on TMD-8 cells (Homo sapiens, TMD8, 72 h) it was 5.85 µM.
The like results for `COc1cc2nn(C3CCN(C(=O)CO)CC3)cc2cc1NC(=O)c1cccc(C(F)(F)F)n1` [Example 5, N-[2-(1-Glycoloylpiperidin-4-yl)-6-methoxy-2H-indazol-5-yl]-6-(trifluoromethyl)pyridine-2-carboxamide] were, in that order, 5.1 µM and 15.5 µM.
In the case of `COc1cc2nn(C3CCOCC3)cc2cc1NC(=O)c1cccc(C(F)(F)F)n1` [Example 1, N-[6-Methoxy-2-(tetrahydro-2H-pyran-4-yl)-2H-indazol-5-yl]-6-(trifluoromethyl)pyridine-2-carboxamide], the IC50 in test [1] (Homo sapiens) is 15.6 µM; in the test on TMD-8 cells (Homo sapiens, TMD8, 72 h), 28.2 µM.
The like results for `COc1cc2nn(C3CCOCC3)cc2cc1NC(=O)c1cccc(C(F)F)n1` [Example 23, 6-(Difluoromethyl)-N-[6-methoxy-2-(tetrahydro-2H-pyran-4-yl)-2H-indazol-5-yl]pyridine-2-carboxamide] were, in that order, 3.84 µM and 8.52 µM.
As for `COc1cc2nn(C3CCN(C)CC3)cc2cc1NC(=O)c1cccc(C(F)(F)F)n1` [Example 4, N-[6-Methoxy-2-(1-methylpiperidin-4-yl)-2H-indazol-5-yl]-6-(trifluoromethyl)pyridine-2-carboxamide], the IC50 in test [1] (Homo sapiens) worked out at 7.41 µM; in the test with TMD-8 cells (Homo sapiens, TMD8, 72 h), 4.08 µM.
